Data reported in publication PMC11477294, “In Vitro Profiling of the Antiviral Peptide TAT-I24” (International Journal of Molecular Sciences, 2024).
Where a SMILES comes first, the peptide text is derived from it. Bridges are numbered along the chain shown (N, C = ends).

How the values were obtained:
[1] = system: baculovirus expressing luciferase under the control of the CMV promoter; assay type: cell-based; conditions: luciferase reporter gene expression in HEK293 cells transduced with baculovirus-luc, MOI 5, 24 h post-infection; 1:3 peptide dilution series; non-linear regression; n = 8
Protocol: A baculovirus expressing luciferase under the control of the CMV promoter has been described previously. HEK293 cells were seeded at a density of 2 × 10^4 cells/100 µL per well in 96-well plates (Sarstedt, Germany). On the next day, cells were treated with a 1:3 dilution series of peptides and, without further pre-incubation, subsequently infected with baculovirus–luc at a multiplicity of infection (MOI) of 5. Cells were lysed 24 h post-infection using 20 µL Cell Culture Lysis Reagent (Promega, Mannheim, Germany). From the lysates, 10 µL was transferred to white 96-well plates, and luciferase was recorded using a luciferase assay system and a GloMax®-Multi Detection System (Promega, Mannheim, Germany).

[2] = system: MCMV strain delm157-luc rep; assay type: cell-based, mouse cytomegalovirus; conditions: luciferase reporter gene expression in NIH/3T3 cells infected with replication-competent MCMV, MOI 0.5, 72 h post-infection; 1:3 dilution series; non-linear regression; n = 9
Protocol: NIH/3T3 cells were seeded at a density of 2 × 10^4 cells/100 µL per well in a 96-well plate (Sarstedt, Germany) and allowed to attach overnight. On the next day, cells were treated with a 1:3 dilutions series of peptides and, without further pre-incubation, subsequently infected with the MCMV strain delm157-luc rep. The MCMV stock was prepared and quantified as previously described. The virus (MOI 0.5 for luc assays; for other assays, see the specific descriptions) was adsorbed to cells with the aid of centrifugal enhancement twice at 800× g for 15 min at room temperature and incubated at 37 °C for the indicated times. For the luciferase assays, the infected cells were lysed 72 h post-infection using 20 µL Cell Culture Lysis Reagent (Promega, Mannheim, Germany). From the lysates, 10 µL was transferred to white 96-well plates, and luciferase was recorded using a Luciferase Assay System and a GloMax®-Multi Detection System (Promega, Mannheim, Germany).

[3] = system: human red blood cells (RBCs); assay: Hemolysis assay with red blood cells; assay type: cell-based; conditions: 1 h at 37 °C; for hemolysis of human RBCs: peptide dilutions in PBS or PBS + 10% donor serum, concentrations < 20 µM (1:2 dilutions), OD 450 nm of supernatants, n = 6; for swelling of RBCs (pellet size after centrifugation): peptide dilutions prepared in PBS, up to 20 µM
Protocol: Blood from healthy volunteers was collected by venipuncture (Greiner Bio-One, Kremsmünster, Austria) into K2E K2EDTA VacuetteTM tubes (Greiner Bio-One, Kremsmünster, Austria) with 4 mL blood. The assay for hemolysis was adapted from Sæbo et al.. Blood was centrifuged at 1000× g for 10 min, and plasma was kept for further use. Red blood cells were then resuspended in 10 mL PBS and centrifuged again at 1000× g for a total of three times. Cells were then counted using a hemocytometer and seeded at a cell number of 1 × 10^7 cells/100 µL PBS per well in conical 96-well plates (ThermoFisher, Darmstadt, Germany). Next, 1:2 peptide dilutions starting from 40 µM either in PBS or 10% donor serum were prepared, and 100 µL was added to 100 µL of RBC. Plates were then incubated for one hour at 37 °C. As the positive control, three wells with 100 µL RBCs were treated with 100 µL PBS + 0.5% Triton X-100. After incubation, plates were centrifuged at 1000× g for 5 min and supernatants were transferred to flat 96-well plates. Optical density (OD) was determined at 450 nm using a GloMax®-Multi Detection System (Promega, Mannheim, Germany). Images from RBCs from light microscopy and centrifuged plates were taken using an iPhone 12 mini.

HEK293 cells = assay: Cell viability assay (CellTiter-Blue) in HEK293 cells; assay type: cell-based; conditions: 72 h at 37 °C, 3-fold dilution series starting with 20 µM, triplicate, non-linear regression (curve fit)
Protocol: HEK293 cells were seeded at a density of 2.5 × 10^3 cells/100 µL per well in a 96-well plate (Sarstedt, Germany). In addition, a serial 1:2 dilution of the cell suspension was added to each plate to generate a standard curve. On the next day, cells were treated with serial 1:3 peptide dilutions in triplicate and incubated for 72 h at 37 °C. Then, 20 µL of CellTiter-Blue® Cell Viability Assay (Promega, Mannheim, Germany) was added to each well and incubated at 37 °C for a further 1–2 h. Fluorescence was recorded using a GloMax®-Multi Detection System (Promega, Mannheim, Germany). The percentage of viable cells was calculated from the cell dilution series from each plate by linear regression analysis. The selectivity index was calculated using the following formula: SI = CC50/IC50.
Figure S1. Cell viability assay in HEK293 cells in the presence of peptides. Cells were incubated with 3 -fold dilution series of peptides starting with a concentration of 20 µM for 72 hours and measured using the Cell Titer Blue assay. Curve fitting of % viable cells of untrea ted control was performed using Graph Pad Prism softwar e.
(1 picture or pasted object on this page, not shown here)

| SMILES | IC50 [1] [µM] | IC50 [2] [µM] | hemolysis of human RBCs [3] | swelling of RBCs (pellet size after centrifugation) [3] | HEK293 CC50 (HEK293 cells) [µM] |
| --- | --- | --- | --- | --- | --- |
| CC(C)C[C@@H]1NC(=O)[C@@H](NC(=O)[C@H](CCC(N)=O)NC(=O)[C@@H]2CCCN2C(=O)[C@@H]2CCCN2C(=O)[C@H](CCCNC(=N)N)NC(=O)[C@H](CCCNC(=N)N)NC(=O)[C@H](CCCNC(=N)N)NC(=O)[C@H](CCC(N)=O)NC(=O)[C@H](CCCNC(=N)N)NC(=O)[C@H](CCCNC(=N)N)NC(=O)[C@H](CCCCN)NC(=O)[C@H](CCCCN)NC(=O)[C@H](CCCNC(=N)N)NC(=O)CN)CSSC[C@@H](C(=O)N[C@@H](Cc2ccccc2)C(=O)O)NC(=O)[C@H](C)NC(=O)[C@H](Cc2ccc(O)cc2)NC(=O)[C@H](Cc2ccccc2)NC(=O)[C@H](C)NC1=O [C22del_cyc] (H-GRKKRRQRRRPPQCLAFYACF-OH; disulfide 14-20) | 1.41 | 12.2 | neither induce hemolysis | reduced swelling |  |
| CSCC[C@H](NC(=O)[C@H](Cc1ccccc1)NC(=O)[C@H](CCCNC(=N)N)NC(=O)[C@H](C)NC(=O)[C@H](Cc1ccc(O)cc1)NC(=O)[C@H](Cc1ccccc1)NC(=O)[C@H](C)NC(=O)[C@H](CC(C)C)NC(=O)[C@H](C)NC(=O)[C@H](CCC(N)=O)NC(=O)[C@@H]1CCCN1C(=O)[C@@H]1CCCN1C(=O)[C@H](CCCNC(=N)N)NC(=O)[C@H](CCCNC(=N)N)NC(=O)[C@H](CCCNC(=N)N)NC(=O)[C@H](CCC(N)=O)NC(=O)[C@H](CCCNC(=N)N)NC(=O)[C@H](CCCNC(=N)N)NC(=O)[C@H](CCCCN)NC(=O)[C@H](CCCCN)NC(=O)[C@H](CCCNC(=N)N)NC(=O)CN)C(=O)O [C14A, C20R, C22M] (H-GRKKRRQRRRPPQALAFYARFM-OH) | 0.58 | 3.59 | neither induce hemolysis | reduced swelling | 63 |
